In patent publication US20230365553A1, “COMPOUNDS AND COMPOSITIONS FOR TREATING CONDITIONS ASSOCIATED WITH STING ACTIVITY” (IFM Due, Inc., priority 2020, published 2023):

Biological target: T1, STING (Homo sapiens, UniProt Q86WV6, G230A/H232R/R293Q/R71H)
T1 construct: host or cells: THP1-Dual KO-IFNAR2 cells
Assay: STING reporter assay: luciferase reporter activity in THP1-Dual KO-IFNAR2 cells stimulated with 2′3′cGAMP
Format: cell-based
Conditions: 15 μM 2′3′cGAMP, 24h, read-out: hSTING EC50
Procedure: STING pathway activation by the compounds described herein was measured using THP 1-Dual™ cells (KO-IFNAR2).
THP1-Dual™ KO-IFNAR2 Cells (obtained from invivogen) were maintained in RPMI, 10% FCS, 5 ml P/S, 2 mM L-glut, 10 mM Hepes, and 1 mM sodium pyruvate. Compounds were spotted in empty 384 well tissue culture plates (Greiner 781182) by Echo for a final concentration of 0.0017-100 μM. Cells were plated into the TC plates at 40 μL per well, 2×10E6 cells/mL. For activation with STING ligand, 2′3′cGAMP (MW 718.38, obtained from Invivogen), was prepared in Optimem media.
The following solutions were prepared for each 1×384 plate: • Solution A: 2 mL Optimem with one of the following stimuli: • 60 μL of 10 mM 2′3′cGAMP→150 μM stock • Solution B: 2 mL Optimem with 60 μL Lipofectamine 2000→Incubate 5 min at RT
2 mL of solution A and 2 ml Solution B was mixed and incubated for 20 min at room temperature (RT). 20 μL of transfection solution (A+B) was added on top of the plated cells, with a final 2′3′cGAMP concentration of 15 μM. The plates were then centrifuged immediately at 340 g for 1 minute, after which they were incubated at 37° C., 5% CO2, >98% humidity for 24h. Luciferase reporter activity was then measured. EC50 values were calculated by using standard methods known in the art.
Luciferase reporter assay: 10 μL of supernatant from the assay was transferred to white 384-plate with flat bottom and squared wells. One pouch of QUANTI-Luc™ Plus was dissolved in 25 mL of water. 100 μL of QLC Stabilizer per 25 mL of QUANTI-Luc™ Plus solution was added. 50 μL of QUANTI-Luc™ Plus/QLC solution per well was then added. Luminescence was measured on a Platereader (e.g., Spectramax I3X (Molecular Devices GF3637001)).
Luciferase reporter activity was then measured. EC50 values were calculated by using standard methods known in the art.

T1 sequence (Q86WV6 whole entry R71H/G230A/H232R/R293Q): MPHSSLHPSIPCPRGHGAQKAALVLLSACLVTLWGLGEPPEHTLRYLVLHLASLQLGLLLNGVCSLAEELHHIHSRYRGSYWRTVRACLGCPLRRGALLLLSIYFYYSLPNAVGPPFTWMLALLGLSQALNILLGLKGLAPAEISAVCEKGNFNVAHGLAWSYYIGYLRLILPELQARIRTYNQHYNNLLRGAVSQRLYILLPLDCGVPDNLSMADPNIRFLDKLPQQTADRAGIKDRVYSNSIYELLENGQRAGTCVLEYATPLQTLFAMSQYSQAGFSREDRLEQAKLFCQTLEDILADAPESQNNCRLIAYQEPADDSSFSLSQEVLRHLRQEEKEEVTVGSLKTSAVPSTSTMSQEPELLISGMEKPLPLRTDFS

| SMILES | EC50 |
| --- | --- |
| O=C(Nc1c[nH]c2ccc(-c3cnn(-c4ccc(C(F)(F)F)cc4)c3)cc12)C1CCC(CO)CC1 (stereo not shown) [Compound 188, 4-(hydroxymethyl)-N-(5-(1-(4-(trifluoromethyl)phenyl)-1H-pyrazol-4-yl)-1H-indol-3-yl)cyclohexane-1-carboxamide] | 1000 to 5000 nM |
| CN1CCC(C(=O)Nc2c[nH]c3ccc(-c4cnn(-c5ccc(C(F)(F)F)cc5)c4)cc23)C1=O (stereo not shown) [Compound 211, 1-methyl-2-oxo-N-(5-(1-(4-(trifluoromethyl)phenyl)-1H-pyrazol-4-yl)-1H-indol-3-yl)pyrrolidine-3-carboxamide] | 1000 to 5000 nM |
| O=C(CCC(F)(F)F)Nc1c[nH]c2ccc(-c3cnn(-c4ccc(C(F)(F)F)cc4)c3)cc12 [Compound 214, 4,4,4-trifluoro-N-(5-(1-(4-(trifluoromethyl)phenyl)-1H-pyrazol-4-yl)-1H-indol-3-yl)butanamide] | 200 to 1000 nM |
| Cc1nc(C(=O)Nc2c[nH]c3ccc(-c4cnn(-c5ccc(C(F)(F)F)cc5)c4)cc23)co1 [Compound 270, 2-methyl-N-(5-(1-(4-(trifluoromethyl)phenyl)-1H-pyrazol-4-yl)-1H-indol-3-yl)oxazole-4-carboxamide] | 200 to 1000 nM |
| CC(=O)NC(C)C(=O)Nc1c[nH]c2ccc(-c3cnn(-c4ccc(C(F)(F)F)cc4)c3)cc12 (stereo not shown) [Compound 215, 2-acetamido-N-(5-(1-(4-(trifluoromethyl)phenyl)-1H-pyrazol-4-yl)-1H-indol-3-yl)propanamide] | 1000 to 5000 nM |
| CCC(=O)Nc1c[nH]c2ccc(-c3cnn(-c4cnc(CC)cn4)c3)cc12 [Compound 248, N-(5-(1-(5-ethylpyrazin-2-yl)-1H-pyrazol-4-yl)-1H-indol-3-yl)propionamide] | 1000 to 5000 nM |
| CC(=O)Nc1c[nH]c2ccc(-c3cnn([C@@H](C)c4cccc(C(F)(F)F)c4)c3)cc12 [Compound 175, (S)-N-(5-(1-(1-(3-(trifluoromethyl)phenyl)ethyl)-1H-pyrazol-4-yl)-1H-indol-3-yl)acetamide] | 200 to 1000 nM |
| CCc1ccc(-n2cc(-c3ccc4[nH]cc(NC(=O)CC(C)(C)O)c4c3)cn2)cc1 [Compound 113, N-(5-(1-(4-ethylphenyl)-1H-pyrazol-4-yl)-1H-indol-3-yl)-3-hydroxy-3-methylbutanamide] | 40 to 200 nM |
| CCC(O)C(=O)Nc1c[nH]c2ccc(-c3cnn(-c4ccc(C(F)(F)F)cc4)c3)cc12 (stereo not shown) [Compound 197, 2-hydroxy-N-(5-(1-(4-(trifluoromethyl)phenyl)-1H-pyrazol-4-yl)-1H-indol-3-yl)butanamide] | 200 to 1000 nM |
| CCC(=O)Nc1c[nH]c2ccc(-c3cnn(-c4ccc(C(F)(F)F)c(COC)c4)c3)cc12 [Compound 256, N-(5-(1-(3-(methoxymethyl)-4-(trifluoromethyl)phenyl)-1H-pyrazol-4-yl)-1H-indol-3-yl)propionamide] | 1000 to 5000 nM |
| CC(=O)Nc1c[nH]c2ccc(-c3cnn([C@H](C)c4cccc(C(F)(F)F)c4)c3)cc12 [Compound 176, (R)-N-(5-(1-(1-(3-(trifluoromethyl)phenyl)ethyl)-1H-pyrazol-4-yl)-1H-indol-3-yl)acetamide] | 200 to 1000 nM |
| CCc1ccc(-n2cc(-c3ccc4[nH]cc(NC(=O)C5CCCC5)c4c3)cn2)cc1 [Compound 115, N-(5-(1-(4-ethylphenyl)-1H-pyrazol-4-yl)-1H-indol-3-yl)cyclopentanecarboxamide] | 40 to 200 nM |
| O=C(Nc1c[nH]c2ccc(-c3cnn(-c4ccc(C(F)(F)F)cc4)c3)cc12)C1CC1(F)F (stereo not shown) [Compound 239, 2,2-difluoro-N-(5-(1-(4-(trifluoromethyl)phenyl)-1H-pyrazol-4-yl)-1H-indol-3-yl)cyclopropane-1-carboxamide] | 200 to 1000 nM |
| O=C(Nc1c[nH]c2ccc(-c3cnn(-c4ccc(C(F)(F)F)cc4)c3)cc12)[C@@H]1CC(F)(F)CN1 [compound 184, (S)-4,4-difluoro-N-(5-(1-(4-(trifluoromethyl)phenyl)-1H-pyrazol-4-yl)-1H-indol-3-yl)pyrrolidine-2-carboxamide] | 5000 to 100000 nM |
| CCC(=O)Nc1c[nH]c2ccc(-c3ccnn3-c3ccc(C(F)(F)F)cc3)cc12 [Compound 116, N-(5-(1-(4-(trifluoromethyl)phenyl)-1H-pyrazol-5-yl)-1H-indol-3-yl)propionamide] | 5000 to 100000 nM |
| CCC(=O)Nc1c[nH]c2ccc(-c3ccc(-c4cnn(C(C)C)c4)cc3)cc12 [Compound 118, N-(5-(4-(1-isopropyl-1H-pyrazol-4-yl)phenyl)-1H-indol-3-yl)propionamide] | 1000 to 5000 nM |

| SMILES | EC50 |
| --- | --- |
| CC(C)(O)C(=O)Nc1c[nH]c2ccc(-c3cnn(-c4ccc(C(F)(F)F)cc4)c3)cc12 [Compound 198, 2-hydroxy-2-methyl-N-(5-(1-(4-(trifluoromethyl)phenyl)-1H-pyrazol-4-yl)-1H-indol-3-yl)propanamide] | 1000 to 5000 nM |
| CC(=O)Nc1c[nH]c2ccc(-c3cnn(Cc4cnc(C5CCC(F)(F)CC5)c(F)c4)c3)cc12 [Compound 250, N-(5-(1-((6-(4,4-difluorocyclohexyl)-5-fluoropyridin-3-yl)methyl)-1H-pyrazol-4-yl)-1H-indol-3-yl)acetamide] | 5000 to 100000 nM |
| O=C(COC(F)(F)F)Nc1c[nH]c2ccc(-c3cnn(-c4ccc(C(F)(F)F)cc4)c3)cc12 [Compound 212, 2-(trifluoromethoxy)-N-(5-(1-(4-(trifluoromethyl)phenyl)-1H-pyrazol-4-yl)-1H-indol-3-yl)acetamide] | 200 to 1000 nM |
| Cc1cc(C(=O)Nc2c[nH]c3ccc(-c4cnn(-c5ccc(C(F)(F)F)cc5)c4)cc23)on1 [Compound 271, 3-methyl-N-(5-(1-(4-(trifluoromethyl)phenyl)-1H-pyrazol-4-yl)-1H-indol-3-yl)isoxazole-5-carboxamide] | 200 to 1000 nM |
| O=C(Nc1c[nH]c2ccc(-c3cnn(-c4ccc(C(F)(F)F)cc4)c3)cc12)c1cocn1 [Compound 267, N-(5-(1-(4-(trifluoromethyl)phenyl)-1H-pyrazol-4-yl)-1H-indol-3-yl)oxazole-4-carboxamide] | 200 to 1000 nM |
| N#CC1(C(=O)Nc2c[nH]c3ccc(-c4cnn(-c5ccc(C(F)(F)F)cc5)c4)cc23)CCC1 [Compound 229, 1-cyano-N-(5-(1-(4-(trifluoromethyl)phenyl)-1H-pyrazol-4-yl)-1H-indol-3-yl)cyclobutane-1-carboxamide] | 1000 to 5000 nM |
| CCc1ccc(-n2cc(-c3ccc4[nH]cc(NC(=O)C(C)O)c4c3)cn2)cc1 (stereo not shown) [Compound 132, N-(5-(1-(4-ethylphenyl)-1H-pyrazol-4-yl)-1H-indol-3-yl)-2-hydroxypropanamide] | 200 to 1000 nM |
| CCC(=O)Nc1c[nH]c2ccc(-c3cnn(C4CCCC4)c3)cc12 [Compound 137, N-(5-(1-cyclopentyl-1H-pyrazol-4-yl)-1H-indol-3-yl)propionamide] | 5000 to 100000 nM |
| CCC(=O)Nc1c[nH]c2ccc(-c3cnn(-c4ccc(C(F)(F)F)c(C)c4)c3)cc12 [Compound 109, N-(5-(1-(3-methyl-4-(trifluoromethyl)phenyl)-1H-pyrazol-4-yl)-1H-indol-3-yl)propionamide] | 200 to 1000 nM |
| CC(C)(C)C(=O)Nc1c[nH]c2ccc(-c3cnn(-c4ccc(C(F)(F)F)cc4)c3)cc12 [Compound 216, N-(5-(1-(4-(trifluoromethyl)phenyl)-1H-pyrazol-4-yl)-1H-indol-3-yl)pivalamide] | 1000 to 5000 nM |
| N#CC1(C(=O)Nc2c[nH]c3ccc(-c4cnn(-c5ccc(C(F)(F)F)cc5)c4)cc23)CC1 [Compound 235, 1-cyano-N-(5-(1-(4-(trifluoromethyl)phenyl)-1H-pyrazol-4-yl)-1H-indol-3-yl)cyclopropane-1-carboxamide] | 1000 to 5000 nM |
| CCc1ccc(-n2cc(-c3ccc4[nH]cc(NC(=O)C(O)C(F)(F)F)c4c3)cn2)cc1 (stereo not shown) [Compound 166, N-(5-(1-(4-ethylphenyl)-1H-pyrazol-4-yl)-1H-indol-3-yl)-3,3,3-trifluoro-2-hydroxypropanamide] | 1000 to 5000 nM |
| CCC(=O)Nc1c[nH]c2ccc(-c3cnn(CC4CC4)c3)cc12 [Compound 148, N-(5-(1-(cyclopropylmethyl)-1H-pyrazol-4-yl)-1H-indol-3-yl)propionamide] | 5000 to 100000 nM |
| COCCOCCC(=O)Nc1c[nH]c2ccc(-c3cnn(-c4ccc(C(F)(F)F)cc4)c3)cc12 [Compound 206, 3-(2-methoxyethoxy)-N-(5-(1-(4-(trifluoromethyl)phenyl)-1H-pyrazol-4-yl)-1H-indol-3-yl)propanamide] | 200 to 1000 nM |
| CCc1ccc(-n2cc(-c3ccc4[nH]cc(NC(=O)C5CCCCO5)c4c3)cn2)cc1 (stereo not shown) [Compound 165, N-(5-(1-(4-ethylphenyl)-1H-pyrazol-4-yl)-1H-indol-3-yl)tetrahydro-2H-pyran-2-carboxamide] | 200 to 1000 nM |
